Values quoted from earlier work in patent US12017989B2, “Controlled release pharmaceutical formulations” (United Therapeutics Corporation, priority 2013, dated 2024).

Conditions: continuous subcutaneous infusion using a pump; Wade et al., J Clin Pharmacol 2004

peak-to-trough variation of concentration profile: 20-30%
SMILES: CCCCC[C@H](O)CC[C@@H]1[C@H]2Cc3cccc(OCC(=O)O)c3C[C@H]2C[C@H]1O [treprostinil]
